From US20210000740A1, “COMPOSITIONS FOR SMALL MOLECULE THERAPEUTIC AGENT COMPOUNDS” (Delpor, Inc., priority 2018, published 2021)
Converted amounts (≈) assume the structure as drawn. Where two headings read alike, the source gives them in different places. Each block holds one compound with its values, some of them ahead of it.

Key:
[1] = cited from earlier work
[2] = cited from earlier work; for Water Solubility: intrinsic water solubility of the acid used in Example 5
[3] = In vitro pH of compositions prepared with organic acids (Table 1); assay type: physicochemical; conditions: composition prepared with the organic acid
Description: Compositions were prepared with the following organic acids listed in Table 1, and pH values were measured.

[4] = cited from earlier work; remark: listed apart in the source
[5] = pH of a saturated aqueous solution of the acid; assay type: physicochemical; conditions: excluding the drug
Description: The rates of in vitro release of the risperidone salts listed in Example 5 are also related in part to the pH of a saturated aqueous solution of the acid. The pH at saturating concentrations of the acids used in Example 5 and their respective risperidone release rates (expressed as the cumulative percent total risperidone released following 15 days incubation at 37° C.) are shown in FIG. 7.

[6] = in vitro, after 28 days, PBS 37° C.

SMILES: O=C1CC2(CCCC2)CC(=O)N1CCCCN1CCN(c2ncccn2)CC1 [Buspirone]
room temperature water solubility ([4]; room temperature): about 21 mg/L

SMILES: CN(C)CCC[C@@]1(c2ccc(F)cc2)OCc2cc(C#N)ccc21 [Escitalopram]
water solubility (in words) [4]: practically insoluble in water

SMILES: CCN(C)C(=O)Oc1cccc([C@H](C)N(C)C)c1 [Rivastigmine]
water solubility (in words) [4]: poorly water soluble

SMILES: CCCN(CCc1cccs1)[C@H]1CCc2c(O)cccc2C1 [Rotigotine]
water solubility (in words) [4]: practically insoluble in water

SMILES: O=C(O)CCCCCCCCC(=O)O [Sebacic, sebacic acid]
pKa ([1]; organic acid, Table 1): 4.72

SMILES: O=c1[nH]c(=O)c2[nH]c(=O)[nH]c2[nH]1 [Uric acid]
Water Solubility [2]: 60 µg/mL

SMILES: COc1cccc(C=CC(=O)O)c1 [m-Methoxycinnamic, m-methoxycinnamic acid]
pKa ([1]; organic acid, Table 1): 4.47 | Solubility ([2]; organic acid, Table 1): 4460 µg/mL (≈ 25 mM) | In vitro pH [3]: 4.49

SMILES: Cc1cc2c(s1)Nc1ccccc1N=C2N1CCN(C)CC1 [olanzapine, reference compound]
pKa1 ([1]; reported value, doubly protonated olanzapine): 5.0 | water solubility (in words) [4]: poorly water soluble

SMILES: Cc1nccn1CC1CCc2c(c3ccccc3n2C)C1=O (stereo not drawn) [ondansetron]
water solubility (in words) [4]: limited water solubility

SMILES: Cc1nc2n(c(=O)c1CCN1CCC(c3noc4cc(F)ccc34)CC1)CCCC2 [risperidone]
insolubility in water as a neutral free base ([4]; 20-25° C.): > 10000 volumes of water per volume of drug

SMILES: Clc1ccc2nsnc2c1NC1=NCCN1 [tizanidine free base, tizanidine]
percent of the drug released [6]: approximately 10%

SMILES: O=C(O)/C=C/c1ccccc1 [trans-Cinnamic, trans-cinnamic acid]
In vitro pH [3]: 4.35

SMILES: CCCc1nc(C)c2c(=O)[nH]c(-c3cc(S(=O)(=O)N4CCN(CC)CC4)ccc3OCC)nn12 [vardenafil]
water solubility (in words) [4]: limited water solubility

Second part, led by results:

In vitro pH [3]: 2.42
SMILES: O=C(O)C(O)c1ccccc1 (racemic) [rac-Mandelic]
pKa ([1]; organic acid, Table 1): 3.85 | Solubility ([2]; organic acid, Table 1): 158700 µg/mL (≈ 1040 mM)

In vitro pH [3]: 6.34
SMILES: O=C(O)C=Cc1ccc(Cl)cc1 [4-Chlorocinnamic]
pKa ([1]; organic acid, Table 1): 4.41

In vitro pH [3]: 6.13
SMILES: Cc1ccc(C=CC(=O)O)cc1 [4-Methylcinnamic]

pH at a saturating concentration [5]: 2.6
SMILES: O=C(O)CNC(=O)c1ccccc1 [Hippuric acid]

pH at a saturating concentration [5]: 3.0
SMILES: O=C(O)CCc1ccc(O)cc1 [Hydroxyphenylpropionic acid, 3-(4-hydroxyphenyl)propionic acid]
Water Solubility [2]: 2760 µg/mL

In vitro pH [3]: 3.68
SMILES: O=C(O)c1cccnc1 [Nicotinic, nicotinic acid]

In vitro pH [3]: 4.21
SMILES: Nc1ccc(C(=O)O)cc1 [PABA, p-aminobenzoic acid]
pKa ([1]; organic acid, Table 1): 4.65

In vitro pH [3]: 3.95
SMILES: O=C(O)/C=C/c1cccc(O)c1 [m-Coumaric, m-coumaric acid]
pKa [1]: 4.01 | Solubility [2]: 1040 µg/mL (≈ 6.34 mM)

In vitro pH [3]: 5.05
SMILES: COc1ccc(C(=O)O)cc1 [p-Anisic, p-anisic acid]
pKa ([1]; organic acid, Table 1): 4.34 | Solubility ([2]; organic acid, Table 1): 400 µg/mL (≈ 2.63 mM)

In vitro pH [3]: 4.36
SMILES: O=C(O)/C=C/c1ccc(O)cc1 [p-Coumaric, p-coumaric acid]
Solubility ([2]; organic acid, Table 1): 1000 to 10000 µg/mL

In vitro pH [3]: 5.37
SMILES: COc1ccc(C=CC(=O)O)cc1 [p-Methoxycinnamic, p-methoxycinnamic acid]
pKa ([1]; organic acid, Table 1): 4.04 | Solubility ([2]; organic acid, Table 1): 712 µg/mL (≈ 4 mM)
